Laboratory results reported in ChEMBL document CHEMBL5465560, “Selectivity Literature for EUbOPEN Chemogenomic Library” (2024).

Tests used:
[1] = molecular target: Serine/threonine-protein kinase PAK 6 (Homo sapiens) (UniProt Q9NQU5); experiment: Selectivity interaction (Kinase panel (Z-LYTE Assay)) EUB0001632a PAK6; details: at 10 µM
[2] = molecular target: Dual specificity tyrosine-phosphorylation-regulated kinase 1B (Homo sapiens, UniProt Q9Y463); experiment: Selectivity interaction (KinomeScan (DiscoverX)) EUB0000666a DYRK1B; details: at 10 µM
[3] = molecular target: Calcium/calmodulin-dependent protein kinase kinase 2 (Homo sapiens) (UniProt Q96RR4); experiment: Selectivity interaction (KinomeScan (DiscoverX)) EUB0000607a CAMKK2; details: at 10 µM
[4] = molecular target: STE20-like serine/threonine-protein kinase (Homo sapiens, UniProt Q9H2G2); experiment: Selectivity interaction (KinomeScan (DiscoverX)) EUB0000595a SLK; details: at 10 µM
[5] = molecular target: T1, Muscarinic acetylcholine receptor M2 (Homo sapiens) (UniProt P08172); experiment: Selectivity interaction (Panel of kinases, GPCRs, ion channels and transporters (enzymatic assay)) EUB0000223bCl CHRM2
T1 sequence (whole entry): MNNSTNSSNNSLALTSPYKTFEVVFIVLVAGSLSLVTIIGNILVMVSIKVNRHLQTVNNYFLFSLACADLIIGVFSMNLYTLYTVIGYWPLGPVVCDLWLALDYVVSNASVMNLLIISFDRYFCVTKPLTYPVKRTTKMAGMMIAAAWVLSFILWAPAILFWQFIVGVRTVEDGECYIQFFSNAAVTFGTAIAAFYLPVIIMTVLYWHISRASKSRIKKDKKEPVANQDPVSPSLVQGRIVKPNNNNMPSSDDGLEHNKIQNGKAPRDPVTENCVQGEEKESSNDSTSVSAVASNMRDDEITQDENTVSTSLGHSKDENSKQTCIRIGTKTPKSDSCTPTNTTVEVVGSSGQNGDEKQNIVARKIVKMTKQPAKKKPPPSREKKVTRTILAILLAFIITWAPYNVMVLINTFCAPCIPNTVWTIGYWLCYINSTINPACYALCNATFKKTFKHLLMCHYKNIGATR

[6] = molecular target: T2, Inhibitor of nuclear factor kappa-B kinase subunit beta (Homo sapiens) (UniProt O14920); experiment: Selectivity interaction (KinomeScan (DiscoverX)) EUB0001079a IKBKB; details: at 1 µM
T2 sequence (whole entry): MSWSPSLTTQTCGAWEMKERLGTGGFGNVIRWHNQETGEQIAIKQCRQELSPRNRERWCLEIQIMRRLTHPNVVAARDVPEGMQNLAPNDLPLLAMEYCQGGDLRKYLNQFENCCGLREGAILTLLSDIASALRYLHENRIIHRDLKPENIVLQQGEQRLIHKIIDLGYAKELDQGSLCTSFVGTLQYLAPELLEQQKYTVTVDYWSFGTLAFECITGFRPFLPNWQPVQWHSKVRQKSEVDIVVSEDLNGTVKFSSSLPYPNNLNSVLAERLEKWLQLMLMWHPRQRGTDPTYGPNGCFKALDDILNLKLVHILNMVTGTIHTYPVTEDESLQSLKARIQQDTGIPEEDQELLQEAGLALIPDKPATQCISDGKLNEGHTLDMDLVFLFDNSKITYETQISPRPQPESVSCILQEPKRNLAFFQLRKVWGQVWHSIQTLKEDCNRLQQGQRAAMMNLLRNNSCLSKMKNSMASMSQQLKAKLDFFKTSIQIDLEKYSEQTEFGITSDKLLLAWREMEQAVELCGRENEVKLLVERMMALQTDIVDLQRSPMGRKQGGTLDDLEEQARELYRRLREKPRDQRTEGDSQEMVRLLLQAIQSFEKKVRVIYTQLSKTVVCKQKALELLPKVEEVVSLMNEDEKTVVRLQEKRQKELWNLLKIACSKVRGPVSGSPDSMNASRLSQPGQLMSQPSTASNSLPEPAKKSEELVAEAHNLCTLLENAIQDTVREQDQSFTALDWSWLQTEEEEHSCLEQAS

[7] = molecular target: T3, Interleukin-1 receptor-associated kinase 3 (Homo sapiens) (UniProt Q9Y616); experiment: Selectivity interaction (KinomeScan (DiscoverX)) EUB0001079a IRAK3; details: at 1 µM
T3 sequence (whole entry): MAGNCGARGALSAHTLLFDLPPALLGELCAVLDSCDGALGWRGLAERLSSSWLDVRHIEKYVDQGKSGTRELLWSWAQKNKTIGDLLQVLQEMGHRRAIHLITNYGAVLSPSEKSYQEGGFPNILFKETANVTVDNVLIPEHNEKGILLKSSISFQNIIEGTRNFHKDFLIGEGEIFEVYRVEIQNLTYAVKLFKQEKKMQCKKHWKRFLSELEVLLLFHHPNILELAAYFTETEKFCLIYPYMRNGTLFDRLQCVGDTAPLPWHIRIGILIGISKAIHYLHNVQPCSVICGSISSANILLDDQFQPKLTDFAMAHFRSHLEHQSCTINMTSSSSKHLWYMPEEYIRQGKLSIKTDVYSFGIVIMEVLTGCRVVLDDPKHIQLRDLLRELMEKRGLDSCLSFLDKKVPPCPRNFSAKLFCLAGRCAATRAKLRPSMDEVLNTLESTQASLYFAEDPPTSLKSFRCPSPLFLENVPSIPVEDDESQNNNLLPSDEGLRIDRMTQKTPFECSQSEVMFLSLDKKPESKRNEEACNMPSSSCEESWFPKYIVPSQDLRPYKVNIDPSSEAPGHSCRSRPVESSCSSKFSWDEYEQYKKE

[8] = molecular target: Non-receptor tyrosine-protein kinase TYK2 (Homo sapiens, UniProt P29597); experiment: Selectivity interaction (KinomeScan (DiscoverX)) EUB0000229b TYK2; details: at 10 µM
[9] = molecular target: RAC-alpha serine/threonine-protein kinase (Homo sapiens, UniProt P31749); experiment: Selectivity interaction (ActivX KiNativ screen (ex vivo kinase selectivity in human PBMCs)) EUB0001619a AKT1; format: cell-based; details: PBMC, at 1 µM
Sequence of RAC-alpha serine/threonine-protein kinase (P31749 whole entry): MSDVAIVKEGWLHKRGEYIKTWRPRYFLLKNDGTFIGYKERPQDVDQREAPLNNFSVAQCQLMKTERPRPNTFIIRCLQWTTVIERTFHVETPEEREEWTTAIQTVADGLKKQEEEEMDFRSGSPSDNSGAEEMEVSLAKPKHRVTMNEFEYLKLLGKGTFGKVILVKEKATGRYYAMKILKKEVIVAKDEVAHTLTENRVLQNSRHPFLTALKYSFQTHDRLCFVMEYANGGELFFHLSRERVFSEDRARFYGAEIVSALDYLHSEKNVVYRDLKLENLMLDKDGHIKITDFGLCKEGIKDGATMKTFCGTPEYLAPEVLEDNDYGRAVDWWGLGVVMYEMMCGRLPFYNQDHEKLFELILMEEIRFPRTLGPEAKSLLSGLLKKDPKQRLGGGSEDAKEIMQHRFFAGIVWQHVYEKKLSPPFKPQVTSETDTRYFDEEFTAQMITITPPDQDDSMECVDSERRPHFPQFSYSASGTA

Sequence of Serine/threonine-protein kinase PAK 6 (Homo sapiens) (Q9NQU5 whole entry, looked up): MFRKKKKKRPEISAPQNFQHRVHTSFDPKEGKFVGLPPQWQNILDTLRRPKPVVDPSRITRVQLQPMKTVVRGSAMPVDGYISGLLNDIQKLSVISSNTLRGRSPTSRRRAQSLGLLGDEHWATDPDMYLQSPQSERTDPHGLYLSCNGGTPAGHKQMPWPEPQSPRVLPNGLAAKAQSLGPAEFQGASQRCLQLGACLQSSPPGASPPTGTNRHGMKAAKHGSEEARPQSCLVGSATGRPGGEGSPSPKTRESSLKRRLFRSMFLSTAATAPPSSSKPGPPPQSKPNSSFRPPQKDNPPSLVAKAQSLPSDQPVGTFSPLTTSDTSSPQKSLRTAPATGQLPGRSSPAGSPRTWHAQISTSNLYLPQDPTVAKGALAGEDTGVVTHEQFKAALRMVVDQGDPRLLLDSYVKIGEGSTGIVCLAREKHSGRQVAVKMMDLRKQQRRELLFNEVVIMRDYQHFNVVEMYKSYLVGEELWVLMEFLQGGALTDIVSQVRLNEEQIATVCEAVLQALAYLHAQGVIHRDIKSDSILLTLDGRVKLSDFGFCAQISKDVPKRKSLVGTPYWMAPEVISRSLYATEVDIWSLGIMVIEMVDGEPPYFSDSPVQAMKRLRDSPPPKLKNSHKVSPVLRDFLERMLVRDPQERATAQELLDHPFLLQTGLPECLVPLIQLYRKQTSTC
Sequence of Calcium/calmodulin-dependent protein kinase kinase 2 (Homo sapiens) (Q96RR4 2-588 limits assumed): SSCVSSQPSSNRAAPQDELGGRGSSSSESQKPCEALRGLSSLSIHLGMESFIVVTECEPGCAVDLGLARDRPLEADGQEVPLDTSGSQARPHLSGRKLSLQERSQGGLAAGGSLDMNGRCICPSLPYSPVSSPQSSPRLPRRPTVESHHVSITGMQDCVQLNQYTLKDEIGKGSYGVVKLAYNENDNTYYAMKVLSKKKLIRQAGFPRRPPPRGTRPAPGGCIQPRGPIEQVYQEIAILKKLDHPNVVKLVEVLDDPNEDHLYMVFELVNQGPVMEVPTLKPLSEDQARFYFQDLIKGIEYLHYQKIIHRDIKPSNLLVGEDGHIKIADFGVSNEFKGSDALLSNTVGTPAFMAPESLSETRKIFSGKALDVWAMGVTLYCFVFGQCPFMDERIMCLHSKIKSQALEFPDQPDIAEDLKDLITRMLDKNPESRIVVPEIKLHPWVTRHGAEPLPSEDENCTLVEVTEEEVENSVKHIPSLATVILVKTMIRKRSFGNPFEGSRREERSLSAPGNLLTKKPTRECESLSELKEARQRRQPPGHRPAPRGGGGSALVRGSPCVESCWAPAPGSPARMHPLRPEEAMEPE
Sequence of Dual specificity tyrosine-phosphorylation-regulated kinase 1B (Q9Y463 whole entry, looked up): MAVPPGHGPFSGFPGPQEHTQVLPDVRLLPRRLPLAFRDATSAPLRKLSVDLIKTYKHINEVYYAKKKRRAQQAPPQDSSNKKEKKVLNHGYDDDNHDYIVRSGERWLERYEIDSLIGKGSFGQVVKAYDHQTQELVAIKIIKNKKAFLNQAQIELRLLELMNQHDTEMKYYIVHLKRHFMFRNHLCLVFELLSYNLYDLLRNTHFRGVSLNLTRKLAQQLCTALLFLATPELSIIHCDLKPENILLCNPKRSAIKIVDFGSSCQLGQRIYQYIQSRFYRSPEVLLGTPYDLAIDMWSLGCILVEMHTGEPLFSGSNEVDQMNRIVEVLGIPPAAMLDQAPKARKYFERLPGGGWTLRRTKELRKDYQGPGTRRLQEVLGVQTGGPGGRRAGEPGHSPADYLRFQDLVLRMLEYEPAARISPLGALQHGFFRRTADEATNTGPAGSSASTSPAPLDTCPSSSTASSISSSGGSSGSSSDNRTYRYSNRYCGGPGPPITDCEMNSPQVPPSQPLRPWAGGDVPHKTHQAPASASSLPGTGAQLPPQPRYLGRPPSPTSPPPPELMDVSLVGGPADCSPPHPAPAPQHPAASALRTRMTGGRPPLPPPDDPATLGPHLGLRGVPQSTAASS
Sequence of Non-receptor tyrosine-protein kinase TYK2 (P29597 whole entry): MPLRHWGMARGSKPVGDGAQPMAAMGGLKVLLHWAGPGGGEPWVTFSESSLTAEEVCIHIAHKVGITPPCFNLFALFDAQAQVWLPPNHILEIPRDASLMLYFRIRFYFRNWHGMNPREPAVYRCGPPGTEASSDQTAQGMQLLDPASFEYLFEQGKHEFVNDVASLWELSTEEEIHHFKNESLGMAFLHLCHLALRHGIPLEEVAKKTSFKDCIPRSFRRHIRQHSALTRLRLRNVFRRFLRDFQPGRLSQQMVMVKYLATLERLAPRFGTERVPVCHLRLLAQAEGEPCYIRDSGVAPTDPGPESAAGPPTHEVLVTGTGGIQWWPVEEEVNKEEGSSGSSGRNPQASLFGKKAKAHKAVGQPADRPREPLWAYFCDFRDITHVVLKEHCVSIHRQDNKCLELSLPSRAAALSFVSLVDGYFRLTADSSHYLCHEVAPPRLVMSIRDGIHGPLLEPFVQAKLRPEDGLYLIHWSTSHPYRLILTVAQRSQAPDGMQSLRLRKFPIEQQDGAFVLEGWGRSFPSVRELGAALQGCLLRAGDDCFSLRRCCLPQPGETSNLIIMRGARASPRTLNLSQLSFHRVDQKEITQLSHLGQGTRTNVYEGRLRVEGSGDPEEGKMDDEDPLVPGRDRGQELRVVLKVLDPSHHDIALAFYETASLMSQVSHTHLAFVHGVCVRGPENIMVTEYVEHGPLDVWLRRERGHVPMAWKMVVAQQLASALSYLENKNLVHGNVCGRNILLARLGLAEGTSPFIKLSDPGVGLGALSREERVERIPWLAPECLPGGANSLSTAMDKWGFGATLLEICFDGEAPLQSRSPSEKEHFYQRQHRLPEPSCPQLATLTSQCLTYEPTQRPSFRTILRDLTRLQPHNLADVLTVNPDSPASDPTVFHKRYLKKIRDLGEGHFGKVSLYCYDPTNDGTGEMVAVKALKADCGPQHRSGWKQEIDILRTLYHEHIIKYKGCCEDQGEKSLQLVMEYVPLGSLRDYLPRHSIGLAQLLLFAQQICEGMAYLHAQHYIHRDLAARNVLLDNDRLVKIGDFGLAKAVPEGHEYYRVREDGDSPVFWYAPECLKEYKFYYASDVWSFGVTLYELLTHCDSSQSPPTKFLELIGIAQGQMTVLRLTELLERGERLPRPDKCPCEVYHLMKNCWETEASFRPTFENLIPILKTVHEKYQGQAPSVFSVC
Sequence of STE20-like serine/threonine-protein kinase (Q9H2G2 whole entry, looked up): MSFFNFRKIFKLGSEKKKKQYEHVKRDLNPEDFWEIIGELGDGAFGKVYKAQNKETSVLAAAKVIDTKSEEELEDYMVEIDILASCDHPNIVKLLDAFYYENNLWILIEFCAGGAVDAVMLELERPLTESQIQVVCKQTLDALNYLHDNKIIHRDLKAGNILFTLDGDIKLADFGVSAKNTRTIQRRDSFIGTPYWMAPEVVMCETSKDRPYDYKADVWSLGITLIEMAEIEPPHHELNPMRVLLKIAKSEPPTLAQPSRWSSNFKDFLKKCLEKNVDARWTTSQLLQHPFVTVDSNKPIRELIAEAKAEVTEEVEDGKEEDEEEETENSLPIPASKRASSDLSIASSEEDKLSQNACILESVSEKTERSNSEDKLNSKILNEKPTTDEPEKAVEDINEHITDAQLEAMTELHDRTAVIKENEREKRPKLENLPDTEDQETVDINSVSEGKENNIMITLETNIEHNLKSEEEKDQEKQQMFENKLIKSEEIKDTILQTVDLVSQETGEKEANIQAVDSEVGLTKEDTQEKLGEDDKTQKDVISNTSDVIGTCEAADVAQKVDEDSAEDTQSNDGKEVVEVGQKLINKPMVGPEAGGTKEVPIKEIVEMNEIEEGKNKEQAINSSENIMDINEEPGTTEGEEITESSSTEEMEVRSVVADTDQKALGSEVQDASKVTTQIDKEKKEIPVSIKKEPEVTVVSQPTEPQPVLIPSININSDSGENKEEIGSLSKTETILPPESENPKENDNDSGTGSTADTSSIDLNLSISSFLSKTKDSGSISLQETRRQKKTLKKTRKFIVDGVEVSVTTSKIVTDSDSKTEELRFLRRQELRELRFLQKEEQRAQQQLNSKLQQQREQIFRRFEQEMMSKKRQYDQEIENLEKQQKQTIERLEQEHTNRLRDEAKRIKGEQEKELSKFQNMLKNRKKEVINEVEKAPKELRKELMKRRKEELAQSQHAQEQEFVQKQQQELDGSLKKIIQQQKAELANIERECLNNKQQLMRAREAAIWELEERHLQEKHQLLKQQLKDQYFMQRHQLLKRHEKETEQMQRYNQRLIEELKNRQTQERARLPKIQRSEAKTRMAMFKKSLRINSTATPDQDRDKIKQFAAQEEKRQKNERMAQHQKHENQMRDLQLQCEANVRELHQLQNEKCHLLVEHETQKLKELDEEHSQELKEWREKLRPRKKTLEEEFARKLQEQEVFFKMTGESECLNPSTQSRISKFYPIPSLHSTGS

## Cn1cc(-n2cnc3c(NCc4nc5cc(Cl)c(Cl)cc5[nH]4)nc(N4CCOCC4)nc32)cn1
[1]
  % of control: -4.06%

## O=C(NOC[C@H](O)CO)c1ccc(F)c(F)c1Nc1ccc(I)cc1F
[2]
  % of control: 98%

## CNC(=O)Nc1ccc(-c2nc(N3CC4CCC(C3)O4)c3cnn(C4CCC5(CC4)OCCO5)c3n2)cc1
[3]
  % of control: 100%

## COCC(=O)NC/C=C/c1ccc2ncnc(Nc3ccc(Oc4ccc(C)nc4)c(C)c3)c2c1 [CP-724714]
[4]
  % of control: 60%

## COc1cc(C(=O)N2CC[C@@H](O)[C@@H](N)C2)cc2nc(-c3cc4ccccc4n3CC3CC3)n(C)c12
[5]
  pXC50: < 4.8 M

## Nc1cnc(N2CCc3cc(S(=O)(=O)Nc4c(F)cc(Cl)cc4F)cc(N4CCCC4=O)c32)nc1 [TP-020n]
[6]
  % of control: 96%
[7]
  % of control: 89%

## COc1cc(N(C)c2ccnc3ccc(C(F)(F)F)cc23)cc(OC)c1OC
[8]
  % binding: 99%

## N#Cc1cccc(-c2c[nH]c3ncnc(N4CCOCC4)c23)c1
[9]
  % of inhibition: -6%
